{"source": "patent US8710102B2", "about": "“Use of beta-adrenoceptor antagonists for the manufacture of a medicament of the treatment of disorders of the outer retina” (Novartis AG, priority 1999, dated 2014)", "key": {"cortical cultures": {"test_system": "cortical cultures", "conditions": "in vitro; literature; cited from earlier work"}, "Male Sprague Dawley rats [1]": {"test_system": "Male Sprague Dawley rats", "conditions": "0.5% topical ocular b.i.d.; for Protection of retinal function compared to vehicle dosed rats: two drops per eye, 17 days before and 2 days after light exposure, ERG five days after", "description": "The purpose of this experiment was to determine the degree of retinal protection that could be measured in rats following topical ocular dosing. Levobetaxolol (0.5%), (racemic) betaxolol (0.5%), and vehicle were evaluated in the photic retinopathy model. Induction of photochemical lesions and evaluation of retinal function with the ERG were performed as described in the photo-oxidative induced retinopathy paradigm used in Example 1.\nMale Sprague Dawley rats were randomly assigned to either a vehicle dosed group (N=10), (racemic) betaxolol (0.5%) dosed group (N=10) or levobetaxolol (0.5%) dosed group (N=10). Rats were dosed topical ocular (b.i.d.) with two drops per eye. Rats were pre-dosed for 17 days prior to light exposure and dosed an additional two days after the light exposure. Control rats (N=4) were housed in their home cage under normal cyclic light exposure."}, "chick retinal cells": {"test_system": "chick retinal cells", "conditions": "in vitro; literature; cited from earlier work"}, "rabbit inner retina": {"test_system": "rabbit inner retina", "conditions": "in vitro; literature; cited from earlier work"}, "[2]": {"test_system": "rat ischemia/reperfusion injury model", "conditions": "literature; cited from earlier work"}, "Male Sprague Dawley rats [3]": {"test_system": "Male Sprague Dawley rats", "test": "Photo-oxidative (blue-light) induced retinopathy, systemic IP dosing, ERG", "conditions": "for Protection of retina function against light-induced retinal degeneration: 20 and 40 mg/kg IP; for Persistence of protection after a 4-week recovery period: IP dosing", "source_text": "The purpose of Experiment 1 was to determine if selective β-adrenoceptor antagonists, in particular betaxolol (racemic), levobetaxolol (S-isomer), and betaxolol (R-isomer) are neuroprotective and can rescue retinal cells from a photo-oxidative induced retinopathy. The purpose of Experiment 2 was to determine the dose-dependent efficacy of timolol, a potent non-selective β1- and β2-blocker, in this photo-oxidative stress model. Male Sprague Dawley rats were randomly assigned to drug or vehicle experimental groups. Rats received three intraperitoneal (IP) injections of either vehicle or drug at 48, 24, and 0 hours prior to a 6-hour light exposure to spectrally filtered blue light (˜220 fc). Control rats were housed in their home cage under normal cyclic light exposure. Control rats were not dosed with either vehicle or drug. The ERG is a non-invasive clinical measurement of the electrical response of the eye to a flash of light. The a-wave and b-wave are two components of the ERG that are diagnostic of retinal function. The a-wave reflects outer retina function and is generated by interactions between photoreceptor and RPE while the b-wave reflects inner retina function, particularly on-bipolar cells. […] Changes in the a-wave amplitude or latency are diagnostic of outer retina pathology. The ERG was recorded after a five day recovery period from dark-adapted anesthetized rats (ketamine-HCl, 75 mg/Kg; xylazine, 6 mg/Kg). The eye's electrical response to a flash of light was elicited by viewing a ganzfeld. ERGs to a series of light flashes increasing in intensity were digitized to analyze temporal characteristics of the waveform and response voltage-log intensity relationship."}, "[4]": {"test": "Light damage paradigms: prevention of light-induced functional or morphological changes", "type": "in vivo", "conditions": "applicant's light damage paradigms"}, "bFGF mRNA": {"test_system": "bFGF mRNA", "test": "Retinal bFGF mRNA upregulation, Northern blot after single IP injection", "conditions": "single IP injection 20 mg/kg; retina harvested after 12 hours in the dark; bFGF/18S"}, "CNTF mRNA": {"test_system": "CNTF mRNA", "test": "Retinal CNTF mRNA upregulation, Northern blot after single IP injection", "conditions": "single IP injection 20 mg/kg; retina harvested after 12 hours in the dark; CNTF/18S"}, "[5]": {"test_system": "P23H mutant rhodopsin transgenic rats", "description": "The P23H rhodopsin mutated transgenic rat has a specific rhodopsin mutation that has been identified in subsets of patients with RP. This degeneration is characterized by a slow degeneration of retinal photoreceptors and marked reduction in the electroretinogram. As in light damage, photoreceptor loss is primarily through an apoptotic process.\nAt the time of weaning, rats are randomly assigned to either a drug or vehicle group. Rats were dosed (oral gavage) with vehicle or levobetaxolol (40 mg/kg,) every other day. […] ERGs were recorded as described in Example 1."}}, "data": [{"compound": "CC(C)NCC(O)COc1ccc(CCOCC2CC2)cc1", "note": "(racemic) [betaxolol (racemic), betaxolol]", "values": [{"measurement": "Glutamate-induced release of lactate dehydrogenase", "setting": "cortical cultures", "value": "partially prevented"}, {"measurement": "ERG response amplitudes vs vehicle dosed rats", "setting": "Male Sprague Dawley rats [1]", "value": "higher but not significantly different"}, {"measurement": "Protection of retinal function compared to vehicle dosed rats", "setting": "Male Sprague Dawley rats [1]", "value": "No significant protection"}, {"measurement": "Kainate induced elevation of intracellular calcium", "setting": "chick retinal cells", "value": "prevent"}, {"measurement": "Changes in GABA immunoreactivity following glucose-oxygen deprivation", "setting": "rabbit inner retina", "value": "partially inhibited"}, {"measurement": "ERG b-wave deficit after ischemia/reperfusion", "setting": "[2]", "value": "protected"}, {"measurement": "Maximum a-wave response amplitude, fold higher than vehicle dosed rats", "setting": "Male Sprague Dawley rats [3]; 20 mg/kg IP at 48, 24, 0 h before 6-hour blue light, 5-day recovery", "value": 1.9, "unit": "fold"}, {"measurement": "Maximum a-wave response amplitude, fold higher than vehicle dosed rats", "setting": "Male Sprague Dawley rats [3]; 40 mg/kg IP at 48, 24, 0 h before 6-hour blue light, 5-day recovery", "value": 2.1, "unit": "fold"}, {"measurement": "Protection of retina function against light-induced retinal degeneration", "setting": "Male Sprague Dawley rats [3]; 5-day recovery", "value": "dose-dependent protection"}]}, {"compound": "CC(C)NCC(O)COc1ccc(CCOCC2CC2)cc1", "note": "(stereo not drawn) [Betaxolol (R-isomer), betaxolol]", "values": [{"measurement": "Protection of retina function against light-induced retinal degeneration", "setting": "Male Sprague Dawley rats [3]; 5-day recovery", "value": "Partial but significant protection"}, {"measurement": "ERGs, % of normal", "setting": "Male Sprague Dawley rats [3]; 20 or 40 mg/kg IP", "value": "approximately 64%"}, {"measurement": "Persistence of protection after a 4-week recovery period", "setting": "Male Sprague Dawley rats [3]", "value": "persisted"}]}, {"compound": "Cc1c(C)c2c(c(C)c1O)CC[C@@](C)(CCC[C@H](C)CCC[C@H](C)CCCC(C)C)O2", "note": "[alpha-tocopherol]", "values": [{"measurement": "Effectiveness in preventing light-induced functional or morphological changes", "setting": "[4]", "value": "ineffective"}]}, {"compound": "Brc1c(NC2=NCCN2)ccc2nccnc12", "note": "[brimonidine]", "values": [{"measurement": "Increase in bFGF mRNA expression", "setting": "bFGF mRNA", "value": 14, "unit": "fold"}, {"measurement": "CNTF mRNA expression upregulation, factor compared to background expression", "setting": "CNTF mRNA", "value": "not upregulated"}]}, {"compound": "Fc1ccc(C(c2ccc(F)cc2)N2CCN(C/C=C/c3ccccc3)CC2)cc1", "note": "[flunarizine]", "values": [{"measurement": "Effectiveness in preventing light-induced functional or morphological changes", "setting": "[4]", "value": "moderately effective"}]}, {"compound": "CC(C)NC[C@H](O)COc1ccc(CCOCC2CC2)cc1", "note": "[levobetaxolol]", "values": [{"measurement": "Outer retinal function, % better than vehicle dosed rats", "setting": "[5]; 40 mg/kg oral every other day, 6-month old rats", "value": 32, "unit": "%"}, {"measurement": "Loss of retinal function compared to vehicle dosed rats", "setting": "[5]; 40 mg/kg oral gavage every other day, 3- and 6-month old rats", "value": "significantly attenuated"}, {"measurement": "Increase in bFGF mRNA expression", "setting": "bFGF mRNA", "value": 13, "unit": "fold"}, {"measurement": "Amelioration of photic induced retinopathy (retinal function vs control rats)", "setting": "Male Sprague Dawley rats [1]", "value": "completely to ameliorated"}, {"measurement": "Protection of retinal function compared to vehicle dosed rats", "setting": "Male Sprague Dawley rats [1]", "value": "significant protection"}, {"measurement": "ERG amplitude relative to vehicle-dosed rats", "setting": "Male Sprague Dawley rats [3]; 20 mg/kg IP, 5-day recovery", "value": "twice"}, {"measurement": "ERG amplitudes, % of normal", "setting": "Male Sprague Dawley rats [3]; 20 mg/kg IP, 5-day recovery", "value": 69, "unit": "%"}, {"measurement": "Protection of the retinal response to a flash of light", "setting": "Male Sprague Dawley rats [3]; 40 mg/kg IP, 5-day recovery", "value": "Complete protection"}, {"measurement": "Protection of retina function against light-induced retinal degeneration", "setting": "Male Sprague Dawley rats [3]; 5-day recovery", "value": "significant protection"}, {"measurement": "Persistence of protection after a 4-week recovery period", "setting": "Male Sprague Dawley rats [3]", "value": "persisted"}, {"measurement": "CNTF mRNA expression upregulation, factor compared to background expression", "setting": "CNTF mRNA", "value": 2.3}]}, {"compound": "COCCOC(=O)C1=C(C)NC(C)=C(C(=O)OC(C)C)C1c1cccc([N+](=O)[O-])c1", "note": "(stereo not shown) [nimodipine]", "values": [{"measurement": "Effectiveness in preventing light-induced functional or morphological changes", "setting": "[4]", "value": "no effect"}]}]}
